Measurements published in ChEMBL document CHEMBL1201862, “PubChem BioAssay data set” (2004).
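Step 1: Grow cells in 96-well plates. Step 2: Expose to compound for 48 hours at 5 concentrations. Step 3: Interpolate endpoints linearly; if unreached, use highest concentration. GI50 is the concentration that inhibits growth by half.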 Calls of active or inactive are those of the source. Cut-off read from the data, not from the text of the source: active = GI50 up to about 1.1 µM and inactive = higher.

Key:
Test in all cases: inhibition of tumour cell growth, NCI panel, 48 h
[1] = test system: EKVX
[2] = test system: HCT-15
[3] = test system: HT-29
[4] = test system: KM12
[5] = test system: M14
[6] = test system: NCI-H226
[7] = test system: NCI-H23
[8] = test system: NCI/ADR-RES
[9] = test system: SF-268
[10] = test system: SN12C
[11] = test system: SNB-19
[12] = test system: SW-620
[13] = test system: TK-10
[14] = test system: U-251
[15] = test system: HCT-116
[16] = test system: HOP-62
[17] = test system: NCI-H522
[18] = test system: SF-295
[19] = test system: T47D

CC1C2=C(O)CC(C)(C)CC2=NC2=C1C(=O)CC(C)(C)C2 (stereo not given)
GI50 [1]: > 100 µM (inactive) | GI50 [2]: > 100 µM | GI50 [3]: > 100 µM (inactive) | GI50 [4]: > 100 µM (inactive) | GI50 [5]: > 100 µM (inactive) | GI50 [6]: > 100 µM (inactive) | GI50 [7]: > 100 µM (inactive) | GI50 [8]: > 100 µM (inactive) | GI50 [9]: > 100 µM (inactive) | GI50 [10]: > 100 µM (inactive) | GI50 [11]: > 100 µM (inactive) | GI50 [12]: > 100 µM (inactive) | GI50 [13]: > 100 µM (inactive) | GI50 [14]: > 100 µM (inactive)

CC[N+]1(C)CCC(O)(/C=C/c2ccc(Cl)cc2)C(C(=O)/C=C/c2ccc(Cl)cc2)C1 (stereo not given)
GI50 [1]: 18.8 µM (inactive) | GI50 [15]: 3.48 µM (inactive) | GI50 [2]: 4.56 µM | GI50 [16]: 14.8 µM (inactive) | GI50 [3]: 3.08 µM (inactive) | GI50 [4]: 2.9 µM (inactive) | GI50 [5]: > 19.9 µM (inactive) | GI50 [7]: 9.89 µM (inactive) | GI50 [17]: 2.88 µM (inactive) | GI50 [8]: 9.64 µM (inactive) | GI50 [9]: 4.55 µM (inactive) | GI50 [18]: 16.2 µM (inactive) | GI50 [10]: 7.11 µM (inactive) | GI50 [11]: 4.46 µM (inactive) | GI50 [12]: 2.56 µM (inactive) | GI50 [19]: 4.86 µM (inactive) | GI50 [13]: 3.51 µM (inactive) | GI50 [14]: 3.81 µM (inactive)

CCOC(=O)CSc1[nH]c2nc(C)nc(Cl)c2c1C#N
GI50 [1]: > 10 µM (inactive) | GI50 [2]: > 10 µM | GI50 [16]: > 10 µM (inactive) | GI50 [3]: > 10 µM (inactive) | GI50 [4]: > 10 µM (inactive) | GI50 [5]: > 10 µM (inactive) | GI50 [7]: > 10 µM (inactive) | GI50 [9]: > 10 µM (inactive) | GI50 [18]: > 10 µM (inactive) | GI50 [10]: > 10 µM (inactive) | GI50 [12]: > 10 µM (inactive) | GI50 [19]: > 10 µM (inactive) | GI50 [13]: > 10 µM (inactive)

O=[N+]([O-])c1ccc(Cl)c2c([N+](=O)[O-])cccc12
GI50 [1]: > 10 µM (inactive) | GI50 [15]: 1.76 µM (inactive) | GI50 [2]: 2.77 µM | GI50 [16]: > 10 µM (inactive) | GI50 [3]: 3.26 µM (inactive) | GI50 [4]: 3.2 µM (inactive) | GI50 [7]: 9.27 µM (inactive) | GI50 [9]: 3.87 µM (inactive) | GI50 [18]: > 10 µM (inactive) | GI50 [10]: 4.56 µM (inactive) | GI50 [11]: 8.51 µM (inactive) | GI50 [12]: 2.91 µM (inactive) | GI50 [19]: 4.22 µM (inactive) | GI50 [13]: 9.57 µM (inactive)

CN(C)C1(N(C)C)Oc2c(c(=O)n(C)c(=O)n2C)C(c2ccc(C(F)(F)F)cc2)C1(F)F (stereo not given)
GI50 [1]: > 100 µM (inactive) | GI50 [15]: > 100 µM (inactive) | GI50 [2]: > 100 µM | GI50 [16]: > 100 µM (inactive) | GI50 [4]: > 100 µM (inactive) | GI50 [5]: > 100 µM (inactive) | GI50 [6]: > 100 µM (inactive) | GI50 [7]: > 100 µM (inactive) | GI50 [8]: > 100 µM (inactive) | GI50 [9]: > 100 µM (inactive) | GI50 [18]: > 100 µM (inactive) | GI50 [11]: > 100 µM (inactive) | GI50 [12]: > 100 µM (inactive) | GI50 [19]: > 100 µM (inactive) | GI50 [13]: > 100 µM (inactive) | GI50 [14]: > 100 µM (inactive)

Cc1ccc2c(c1)NC(c1ccc(C(=O)O)cc1)c1cccn1-2 (stereo not given)
GI50 [1]: 22.1 µM (inactive) | GI50 [15]: 47.9 µM (inactive) | GI50 [2]: > 100 µM | GI50 [16]: 24 µM (inactive) | GI50 [3]: 78.3 µM (inactive) | GI50 [4]: 30.7 µM (inactive) | GI50 [5]: 46.8 µM (inactive) | GI50 [6]: > 100 µM (inactive) | GI50 [7]: > 100 µM (inactive) | GI50 [18]: 37.8 µM (inactive) | GI50 [10]: 69.7 µM (inactive) | GI50 [11]: 22.4 µM (inactive) | GI50 [12]: > 100 µM (inactive) | GI50 [19]: 13.7 µM (inactive) | GI50 [13]: 30.8 µM (inactive) | GI50 [14]: 30.9 µM (inactive)

CN(C)CCNC(=O)c1cccc2c(NC(CCCNC(=N)N)C(=O)O)c3ccccc3nc12 (stereo not given)
GI50 [1]: 3.48 µM (inactive) | GI50 [15]: 3.93 µM (inactive) | GI50 [2]: 6.37 µM | GI50 [16]: 9.73 µM (inactive) | GI50 [3]: 2.7 µM (inactive) | GI50 [4]: 7.26 µM (inactive) | GI50 [5]: 14 µM (inactive) | GI50 [6]: 3.88 µM (inactive) | GI50 [7]: 5.53 µM (inactive) | GI50 [17]: 3.75 µM (inactive) | GI50 [8]: 3.75 µM (inactive) | GI50 [9]: 9.2 µM (inactive) | GI50 [18]: 7.57 µM (inactive) | GI50 [10]: 10.5 µM (inactive) | GI50 [11]: 3.94 µM (inactive) | GI50 [12]: 5.4 µM (inactive) | GI50 [13]: 21.1 µM (inactive) | GI50 [14]: 14.3 µM (inactive)

O=C1CC(c2ccc(Cl)cc2)C2(C(=O)NC(=S)NC2=O)C(c2ccc(Cl)cc2)C1 (stereo not given)
GI50 [1]: 29 µM (inactive) | GI50 [15]: 18.7 µM (inactive) | GI50 [2]: 23.7 µM | GI50 [16]: 26.8 µM (inactive) | GI50 [3]: 16.9 µM (inactive) | GI50 [4]: 18.5 µM (inactive) | GI50 [5]: 22.2 µM (inactive) | GI50 [6]: 21.7 µM (inactive) | GI50 [7]: 18.8 µM (inactive) | GI50 [8]: 20.8 µM (inactive) | GI50 [9]: 16.2 µM (inactive) | GI50 [18]: 17.6 µM (inactive) | GI50 [10]: 18.2 µM (inactive) | GI50 [11]: 18.4 µM (inactive) | GI50 [12]: 21.5 µM (inactive) | GI50 [19]: 23.7 µM (inactive) | GI50 [13]: 41.1 µM (inactive) | GI50 [14]: 29.2 µM (inactive)

C=CCCCC1(C)CCCCNC1=O (stereo not given)
GI50 [1]: > 10 µM (inactive) | GI50 [15]: > 10 µM (inactive) | GI50 [2]: > 10 µM | GI50 [16]: > 10 µM (inactive) | GI50 [3]: > 10 µM (inactive) | GI50 [4]: > 10 µM (inactive) | GI50 [5]: > 10 µM (inactive) | GI50 [6]: > 10 µM (inactive) | GI50 [7]: > 10 µM (inactive) | GI50 [8]: > 10 µM (inactive) | GI50 [9]: > 10 µM (inactive) | GI50 [18]: > 10 µM (inactive) | GI50 [10]: > 10 µM (inactive) | GI50 [11]: > 10 µM (inactive) | GI50 [12]: > 10 µM (inactive) | GI50 [19]: > 10 µM (inactive) | GI50 [13]: > 10 µM (inactive) | GI50 [14]: > 10 µM (inactive)

N=C(NCc1ccccc1)N/N=C\c1ccnc2ccccc12
GI50 [1]: 10 µM (inactive) | GI50 [2]: 16 µM | GI50 [16]: 16 µM (inactive) | GI50 [3]: 11.2 µM (inactive) | GI50 [4]: 15.9 µM (inactive) | GI50 [5]: 4.84 µM (inactive) | GI50 [6]: 17.1 µM (inactive) | GI50 [7]: 15.7 µM (inactive) | GI50 [8]: 15.8 µM (inactive) | GI50 [9]: 12.3 µM (inactive) | GI50 [18]: 15.3 µM (inactive) | GI50 [10]: 15.1 µM (inactive) | GI50 [11]: 17.9 µM (inactive) | GI50 [12]: 14.8 µM (inactive) | GI50 [19]: 1.41 µM (inactive) | GI50 [13]: 14.8 µM (inactive) | GI50 [14]: 15.6 µM (inactive)

CC1(CCCCO)C=CC(S(=O)(=O)c2ccccc2)CC1 (stereo not given)
GI50 [1]: 3.1 µM (inactive) | GI50 [15]: 4.15 µM (inactive) | GI50 [2]: 3.69 µM | GI50 [16]: 2.64 µM (inactive) | GI50 [3]: 1.82 µM (inactive) | GI50 [4]: 1.86 µM (inactive) | GI50 [5]: 3.4 µM (inactive) | GI50 [6]: 2.43 µM (inactive) | GI50 [7]: 5.04 µM (inactive) | GI50 [17]: 1.87 µM (inactive) | GI50 [8]: 2.59 µM (inactive) | GI50 [9]: 1.36 µM (inactive) | GI50 [18]: 12 µM (inactive) | GI50 [10]: 11 µM (inactive) | GI50 [11]: 13.6 µM (inactive) | GI50 [12]: 5.87 µM (inactive) | GI50 [13]: 6.97 µM (inactive) | GI50 [14]: 6.95 µM (inactive)

CC(C)(C)OC(=O)N[C@@H](Cc1ccccc1)C(=O)N1CC[C@@H](C(=O)N2[C@H]3CC4CC[C@@]3(CS2(=O)=O)C4(C)C)N1
GI50 [15]: 47.3 µM (inactive) | GI50 [2]: 56.9 µM | GI50 [16]: 78.3 µM (inactive) | GI50 [3]: 97.3 µM (inactive) | GI50 [4]: 79.1 µM (inactive) | GI50 [5]: 74 µM (inactive) | GI50 [6]: > 100 µM (inactive) | GI50 [7]: 50.6 µM (inactive) | GI50 [8]: 62.5 µM (inactive) | GI50 [9]: > 100 µM (inactive) | GI50 [10]: 59 µM (inactive) | GI50 [11]: 93.8 µM (inactive) | GI50 [12]: 62.8 µM (inactive) | GI50 [19]: 0.752 µM (active) | GI50 [14]: > 100 µM (inactive)
